Experimental data: patent publication US4544740A, “Process for the preparation of 5-(2-bromovinyl)-uridine” (priority 1981, dated 1985)
In brackets after ≈: the same amount, converted by molar mass. Several values for one entry are separate records, joined by “and”; a condition that tells them apart may be missing. Equal entries are not always repeated. Entries after “also recorded” stand apart in the source; their conditions may differ. Where two headings read alike, the source gives them in different places.

Key:
[1] = system: type 1 Herpes simplex virus; experiment: Inhibitory effect of nucleoside analogues on multiplication of type 1 Herpes simplex in HeLa cell culture (virus titer, TCID50); type: cell-based, Herpes simplex virus type 1; settings: for log TCID50, average: average of individual experiments; for Δ log TCID50, average / Δ log TCID50: difference from control; for antiviral (anti-herpes) effect in words: in vitro, tissue culture
Description: (§1) A method was developed for the testing of the antiviral activity of various drugs in solution which is suitable for the exact, sensitive and objective in vitro assay of drug activity exerted on the cells and tissues of both warm-blooded animals and men [Toxicology 16, 59 (1980)]. The method is also suitable for calculating from the test data the highest concentration of the test drug in the tissue culture medium which is not impairing the tissue yet (CTo).
The difference in the logarithm of virus titers may be considered the objective indicator of the rate of inhibition of virus multiplication.

Water solubility = type: physicochemical; settings: i.v. trial limited
[2] = Cytotoxicity of nucleoside analogues in HeLa cell cultures; type: cell-based; settings: human, hela cells
Description: (§2) Cytotoxicity of nucleoside analogues at concentra-
(§3) tions of CTo and CT50 in various cell cultures in […]

tissue culture = experiment: Comparative toxicity in tissue culture
Description: as §1

[3] = Cytotoxicity of nucleoside analogues in Vero cell cultures; type: cell-based; settings: monkey, vero cells
Description: as §2, §3

Herpes simplex type 1 = experiment: Effect of nucleoside analogues on virus multiplication in cell cultures at concentrations of CTo: Herpes simplex type 1 in HeLa cell culture; type: cell-based, Herpes simplex virus type 1
Description: The testing of antiviral activity was carried out according to the following considerations:
According to the literature the major part of antiviral nucleoside analogues is presumed to exert its "antiviral potency" by interfering with the functioning of the host cell which as a result fails to promote intracellular virus multiplication (it is a well known fact that virus multiplication requires a well functioning host cell).
Effect of nucleoside analogues on virus multiplica-
tion in cell cultures at concentrations of CTo
^1 = type 1 in HeLa cell culture

[4] = Cytotoxicity of nucleoside analogues in BHK-21 cell cultures; type: cell-based; settings: hamster, bhk-21 cells
Description: as §2, §3

[5] = Cytotoxicity of nucleoside analogues in RK-13 cell cultures; type: cell-based; settings: rabbit, rk-13 cells
Description: as §2, §3

Herpes simplex virus = settings: literature; cited from earlier work
[6] = individual experiments, HeLa, concentration of CTo
[7] = read-out: CT50 (the source's name) (converted)

Description for mice: Solvent: 20 percent aqueous dimethylsulfoxide
Acute toxicity after a single dose
/measured after 24 hours/
Dose Number of dead/treated animals

Question: Which “log TCID50, average” value ([1]; HeLa, concentration of CTo) does the source give for `O=c1[nH]c(=O)n([C@@H]2O[C@H](CO)[C@@H](O)[C@H]2O)cc1/C=C/Br` [A, (E)-5-(2-Bromovinyl)-uridine] here?
Answer: 2.66

Question: What about the “Δ log TCID50, average” value ([1]; HeLa, concentration of CTo) of the same compound?
Answer: 3.16

Question: And the “antiviral (anti-herpes) effect in words” value ([1]; listed as (E)-5-(2-Bromovinyl)-uridine)?
Answer: very active in inhibiting the multiplication of type 1 Herpes simplex virus

Question: And the “antiviral (anti-herpes) effect in words” value ([1]; listed as (E)-5-(2-bromovinyl)-uridine)?
Answer: marked antiviral effect in vitro; also recorded: significantly reduced

Question: And the “antiviral (anti-herpes) effect in words” value ([1]; listed as ribonucleoside of (E)-5-(2-bromovinyl)-uracil base)?
Answer: similarly high anti-herpes potency

Question: And the “log TCID50” value [1, 6]?
Answer: 2.77 and 2.5 and 3.0 and 2.33

Question: What about the “Δ log TCID50” value [1, 6] of the same compound?
Answer: 3.23 and 3.33 and 3.25 and 3.0 and 3.16 and 3.17

Question: And the water solubility (Water solubility)?
Answer: poor water solubility

Question: What about the CC50 [2] of the same compound?
Answer: 398 µg/mL (≈ 1140 µM)

Question: What about the MNTC [2] of the same compound?
Answer: 100 µg/mL

Question: And the “Number of dead/treated animals” value (mice; mouse, in vivo, 1000 mg/kg)?
Answer: 0/5

Question: What about the “Number of dead/treated animals” value (mice; mouse, in vivo, 1500 mg/kg) of the same compound?
Answer: 0/5

Question: And the “Number of dead/treated animals” value (mice; mouse, in vivo, ip, 500 mg/kg)?
Answer: 0/5

Question: What about the “Number of dead/treated animals” value (mice; mouse, in vivo, ip, 750 mg/kg) of the same compound?
Answer: 0/5

Question: What about the “Number of dead/treated animals” value (mice; mouse, in vivo, ip, 1000 mg/kg) of the same compound?
Answer: 4/5

Question: What about the “Number of dead/treated animals” value (mice; mouse, in vivo, iv, 300 mg/kg) of the same compound?
Answer: 0/5

Question: What about the “effect on cells and tissues used for culturing” value (tissue culture) of the same compound?
Answer: without impairing the cells and tissues used for culturing

Question: And the CC50 [3]?
Answer: 398 µg/mL (≈ 1140 µM)

Question: And the MNTC [3]?
Answer: 100 µg/mL

Question: And the “Effect on virus multiplication, Herpes simpl.” value (Herpes simplex type 1)?
Answer: ++++

Question: And the CC50 [4]?
Answer: 501 µg/mL (≈ 1440 µM)

Question: What about the MNTC [4] of the same compound?
Answer: 126 µg/mL

Question: And the CC50 [5]?
Answer: 501 µg/mL (≈ 1440 µM)

Question: What about the MNTC [5] of the same compound?
Answer: 39.8 µg/mL

Question: Which results are given for `O=c1[nH]c(=O)n([C@H]2C[C@H](O)[C@@H](CO)O2)cc1/C=C/Br` [B, (E)-5-(2-bromovinyl)-2'-deoxy-uridine, reference compound]?
Answer: antiviral / anti-herpes activity in words (Herpes simplex virus): marked anti-herpes potency; log TCID50, average ([1]; HeLa, concentration of CTo): 2.26; Δ log TCID50, average ([1]; HeLa, concentration of CTo): 3.53; antiviral (anti-herpes) effect in words [1]: marked antiviral effect in vitro; Δ log TCID50 [1, 6]: 3.33 and 3.84 and 3.78 and 3.17; MNTC ([2]; HeLa, highest concentration not impairing the tissue, read-out: CTo (converted)): 39.8 µg/mL; CC50 [2, 7]: 251 µg/mL (≈ 754 µM); Number of dead/treated animals (mice; i.p., 500 mg/kg single dose, 24 hours): 0/5; Number of dead/treated animals (mice; i.p., 750 mg/kg single dose, 24 hours): 2/5; Number of dead/treated animals (mice; i.p., 1000 mg/kg single dose (aqueous suspension), 24 hours): 5/5; Number of dead/treated animals (mice; i.v., 300 mg/kg single dose, 24 hours): 1/5; Number of dead/treated animals (mice; per os, 1000 mg/kg single dose (aqueous suspension), 24 hours): 0/5; Number of dead/treated animals (mice; per os, 1500 mg/kg single dose (aqueous suspension), 24 hours): 0/5; effect on cells and tissues used for culturing (tissue culture; at concentrations as low as CTo): without impairing the cells and tissues used for culturing; MNTC ([3]; Vero, highest concentration not impairing the tissue, read-out: CTo (converted)): 39.8 µg/mL; CC50 [3, 7]: 316 µg/mL (≈ 949 µM); Effect on virus multiplication, Herpes simpl. (Herpes simplex type 1): ++++; MNTC ([4]; BHK-21, highest concentration not impairing the tissue, read-out: CTo (converted)): 316 µg/mL; CC50 [4, 7]: 794 µg/mL (≈ 2380 µM); MNTC ([5]; RK-13, highest concentration not impairing the tissue, read-out: CTo (converted)): 20 µg/mL; CC50 [5, 7]: 794 µg/mL (≈ 2380 µM)

Question: With `O=c1[nH]c(=O)n([C@H]2C[C@H](O)[C@@H](CO)O2)cc1I` [C, 5iodo-2deoxy-uridine] as the compound, how does the CC50 [2] read?
Answer: 20 µg/mL (≈ 56.3 µM)

Question: What about the MNTC [2] of the same compound?
Answer: 0.0398 µg/mL

Question: What about the CC50 [3] of the same compound?
Answer: 39.8 µg/mL (≈ 112 µM)

Question: And the MNTC [3]?
Answer: 31.6 µg/mL

Question: And the CC50 [4]?
Answer: 6.31 µg/mL (≈ 17.8 µM)

Question: And the MNTC [4]?
Answer: 0.1 µg/mL

Question: And the CC50 [5]?
Answer: 79.4 µg/mL (≈ 224 µM)

Question: And the MNTC [5]?
Answer: 5.01 µg/mL

Question: With `Nc1nc(=O)n([C@H]2C[C@H](O)[C@@H](CO)O2)cc1I` [D, 5iodo-2deoxy-cytidine] as the compound, how does the CC50 [2] read?
Answer: 7.94 µg/mL (≈ 22.5 µM)

Question: What about the MNTC [2] of the same compound?
Answer: 0.01 µg/mL
